“And” between values parts separate entries of the source, which are not always exact repeats. Equal entries are not always repeated. “Also recorded” adds a separate entry of the source. Where two headings read alike, the source gives them in different places.
How the values were obtained:
[1] = system: neuronal nicotinic cholinergic channels in PC12 cells; test: Cholinergic channel activator action in PC12 cells, whole-cell patch-clamp; type: cell-based, rat
Protocol: Electrophysiologic recordings were obtained from differentiated (neurite-bearing) cells after 4-7 days exposure to NGF. […] After 20 minutes, differentiating medium was added (DMEM containing 100 ng/ml nerve growth factor, 5% heat-inactivated fetal calf serum and 2.5% heat-inactivated horse serum) and the cells were refed with this medium every 3 days.
The intracellular (recording pipette) solution consisted of 140 mM KCl, 1.0 mM CaCl2, 2.0 mM MgCl2, 11 mM K-EGTA, and 10 mM K-HEPES buffer (7.3 pH, 315 mOsm). Osmolarities were adjusted using dextrose such that the extracellular solution was 10 mOsm hypertonic compared to the intracellular solution. Voltage-gated inward (sodium) and outward (potassium) currents were monitored throughout the experiment to determine establishment and maintenance of the whole-cell recording configuration.

[2] = system: retention of the avoidance response; test: Inhibitory avoidance test; type: in vivo; conditions: i.p. 15 min before training, retention at 24 h, p<0.05
From the text: The inhibitory (or sometimes called passive) avoidance (IA) test is a well-accepted animal model for learning/memory and is widely used to assess the activity of novel cognition enhancers in enhancing cognitive function (Wanibuchi et al., Eur. J. Pharmacol., 1990, 187:479). According to this test, animals are placed in the illuminated (12×14×11 cm) portion of a two-chambered box, from which they enter through a guillotine door to the larger (24×13.5×12 cm) dark compartment of the box. Entry to the dark compartment is accompanied by a mild (0.35 mA), brief (2 seconds) footshock. Initial latencies to cross are recorded, with an imposed 60 second ceiling. Following a 24 hour retention interval, animals are returned to the illuminated chamber, and latency to return to the dark compartment is again recorded, with a ceiling of 180 seconds. No footshock is administered on the test day.
Twelve animals were used in each group.

[3] = system: time spent in the open arms (anxiolytic activity); test: Mouse elevated plus-maze; type: in vivo, CD1 mice; conditions: i.p., p<0.05; for Elevated Plus-Maze (EPM) result: time in open arms
From the text: (§1) The mouse elevated plus-maze is a commonly-used conflict test that probes anxiolytic activity of test compounds (Lister, Psychopharmacology, 1987, 92 180). It is based on the fact that exposure of mice to an elevated open arm leads to an avoidance response considerably stronger than that evoked by exposure to an enclosed arm.
The apparatus required to perform this test is made of plywood and consists of two open arms (17×8 cm) and two enclosed arms (17×8×15 cm) extending from a central platform (8×8 cm). It is mounted on a plywood base rising 39 cm above the floor. Mice are released on the central platform and the time spent in the open and enclosed arms is recorded during a 5 minute test period.
The compound of Example 2 (0.0108-1.08 μmol/kg, i.p.) was administered to CD1 mice (n=12 per group) 15 minutes before the test.

ethanol-induced narcosis [4] = type: in vivo, male CD1 mice; conditions: mouse, in vivo
From the text: It is known that administration of ethanol to mice induces a state of narcosis in the animals. […] It is also known that certain compounds can modify the narcotic effect of ethanol in this model.
Animals: Male CD1 mice (Charles-River Co., Portage, Mich.) weighing 25-30 g were used in the experiments. Upon arrival they were caged in groups of 14 and allowed to acclimatize to laboratory conditions for one week before the beginning of the studies. They were fed standard rodent diet with food and water ad libitum.
Duration of sleep time: Mice received intraperitoneal (i.p.) injections of ethanol and either saline or one of the drug treatments. Upon loss of the righting reflex, a timer was started to record the duration of the sleep time until the reflex was recovered. Two types of experiments were conducted to study the effect of drugs before (pre-treatment) or after (post-treatment) the injection of the narcotic dose of ethanol. In the pre-treatment experiments the drugs were injected i.p., 15 minutes before ethanol. In the post-treatment experiments the drugs were administered i.p., 1 minute after the animals lost the righting reflex, which was approximately 5 minutes after administration of ethanol.
Drugs: Ethanol was prepared as a 20% v/v (16% w/v) solution in saline. Based on previous studies, a dose of 87 mmol/kg (4 g/kg) was selected as the narcotic dose. RO 15-4513, the benzodiazepine receptor inverse agonist discussed in the Background section, was purchased from RBI (Natick, Mass.). It was dissolved in saline solution with Tween-80 and ultrasonically homogenized for 3 minutes. […] The compounds of Examples 2 and 4, both novel neuronal nicotinic receptor ligands according to the present invention, were also dissolved in saline to the desired concentrations.

spike wave discharges = test: Attenuation of petit mal absence-like spike wave discharges (EEG); type: in vivo, male Wistar rats; conditions: for effect on incidence of spike wave discharges: i.p., 20 min waking immobility, p<0.05 where significant; for Total spike wave duration: 5.0 μmol/kg i.p.
Protocol: Animals: Male albino rats of the Wistar strain (CAMM Research) were maintained on a 12:12 hour light-dark cycle and individually housed throughout these experiments. They were fed standard rodent diet with food and water provided ad libitum.
EEG Recordings: To record spike wave discharges, rats were surgically implanted with permanently affixed EEG electrodes over the frontal codex using previously described techniques (Radek, Brain Res., 1993, in press). After at least a ten day recovery from this surgery, EEG recordings were made inside darkened sound attenuating chambers. Rats were allowed to move freely within the chambers and computerized activity monitors recorded animal motion during these studies. Only those rats that express spike wave discharges, as identified from preliminary recordings, were used to test the effects of nicotinic agents.
Drug studies: EEG recordings were obtained from each rat for a period of 20 minutes of total waking immobility immediately after administration of drug, or a drug-free control solution. Immobility was characterized as the absence of infrared beam interruptions from the activity monitor system. Spike wave activity was identified as regular 6-10 Hz complexes with amplitudes of 0.4 to 1.0 mV. The total spindling duration for 20 minutes of waking immobility was calculated by determining the length (in seconds) of each spike wave burst, and adding each of these times together to obtain a total spindle time for the recording session. Each rat was administered the control solution and one or two doses of the test compounds and each dosing was given at least 48 hours after the previous treatment.
The compound of Example 2 was dissolved in saline to the desired concentration.

1-4 Hz slow wave EEG = 1-4 Hz slow wave EEG amplitude; type: in vivo, male Wistar rats
[5] = system: anxiety induced by (-)-nicotine withdrawal; test: Elevated plus-maze 48 hours after withdrawal of 14-day chronic (-)-nicotine; type: in vivo, rats
From the text: as §1, with “a” for “a commonly-used”, “92:180).” for “92 180).”, “arm. Compounds may be tested for their ability to modify the avoidance response of the animal to the open arm maze. […] The effect of such potential anti-anxiety drugs may be tested further in a withdrawal challenge test.” for “arm.”
Elevated Plus-Maze: The procedure originally described by Pellow et al., for rats was used, with minor modifications (Pellow et al., J. Neurosci. Meth., 14: 149, 1985). The apparatus consisted of two open arms (50×10 cm) and two enclosed arms (50×10×40 cm) extending from a central platform (10×10 cm). It was mounted on a base raising 50 cm above the floor. Light levels on the open and enclosed arms were similar. The animals were placed in the center of the maze and the time spent in the open arms and the total distance traveled by the rat were recorded automatically by a camera mounted above the apparatus, then analyzed by computer (Videomex™ software, Columbus Instruments, Columbus, Ohio). All animals used were naive to the apparatus. Animals were injected i.p. with saline or the different drug doses, and submitted to the test 30 minutes later. The test lasted 5 minutes, and the apparatus was thoroughly cleaned after removal of the animal.
The pumps were removed on day 14 and the animals were tested in the plus-maze 48 hours later, at the time when a state of withdrawal-induced anxiety was present in the rats. On the test day i.p. doses of either saline or the compound of Example 2 were administered to the animals 30 minutes before the test. Data (Table 13) represent the mean ±SEM time spent in the open arms of the plus-maze of 8-16 rats.

effects of ethanol = conditions: administered directly into the brain; ethanol i.p.; cited from earlier work
[6] = target: neuronal nicotinic receptors; test: Displacement of [3H]-MCC or [3H]-cytisine from neuronal nicotinic receptors, whole rat brain membranes; type: binding
Protocol: Binding of [^3 H]-methylcarbamylcholine ([^3 H]-MCC) or [^3 H]-cytisine ([^3 H]-CYT) to nicotinic receptors was accomplished using crude synaptic membrane preparations from whole rat brain (Snyder and Enna, Brain Research, 1975, 100:81). Washed membranes were stored at -80° C. prior to use. Frozen aliquots were slowly thawed and resuspended in 20 volumes of buffer (containing: 120 mM NaCl, 5 mM KCl, 2 mM MgCl2, 2 mM CaCl2 and 50 mM Tris-Cl, pH 7.4 @4° C). After centrifuging at 20,000 X g for 15 minutes, the pellets were resuspended in 30 volumes of buffer. Homogenate (containing 125-150 μg protein) was added to triplicate tubes containing concentrations of test compound and [^3 H]-MCC (3 nM) in a final volume of 500 μL. Samples were incubated for 60 minutes at 4° C., then rapidly filtered through Whatman GF/B filters presoaked in 0.5% polyethylimine using 3×4 mL of ice-cold buffer. Alternately, homogenate and test compound were incubated for 75 min with [^3 H]-CYT (1.3 nM), then rapidly filtered, as described above. The filters are counted in 4 mL of Ecolume® (ICN). […] IC50 values were determined with the ALLFIT nonlinear least squares curve-fitting program and IC50 values were converted to Ki values using the Cheng and Prusoff correction (Ki =IC50 /(1+[ligand]/Kd of ligand)). Alternately, data were expressed as a percentage of the total specific binding.

muscarinic receptors = type: binding, rat; conditions: Table 2
Protocol: The potencies of ligand binding at central muscarinic binding sites were determined by analysis of competition with the specific muscarinic receptor radioligand [^3 H]-quinuclidinyl benzilate ([^3 H]-QNB). […] Competition between various concentrations of putative nicotinic ligand compounds and 0.2 nM [^3 H]-QNB was performed at 25° C. in an assay volume of 1 mL. After 75 minutes, the bound radioligand was separated by vacuum filtration on Whatman GF/B glass fiber filters. Non-specific binding was defined as radioactivity remaining in the presence of 10 μM atropine. Competition curves were analyzed for Ki values as described above for binding to the nicotinic receptor.

[7] = in vivo; cited from earlier work
ethanol-induced narcosis [8] = conditions: literature knowledge; cited from earlier work
[9] = system: resting cortical perfusion in the parietotemporal cortex; conditions: humans; cited from earlier work

CN1CCCC1c1cccnc1 (single isomer, unassigned; (-)) [(-)-Nicotine]
EC50 ([1]; PC12 cells, mean ± S.E.M.): 52 ± 4 µM | Inhibitory Avoidance (IA) result [2]: dose-dependent facilitation of retention of the avoidance response | Inhibitory Avoidance (IA) result ([2]; listed as (-)-nicotine): significant | Elevated Plus-Maze (EPM) doses with significant effect [3]: 0.62 to 1.9 µmol/kg | Elevated Plus-Maze (EPM) result [3]: significant increase in the time spent by the mice in the open arms | Elevated Plus-Maze (EPM) result ([3]; listed as (-)-nicotine): significant | effect of pre-treatment on ethanol sleeping time (ethanol-induced narcosis [4]): significantly reduced the sleeping time of ethanol in mice | Sleeping time (ethanol-induced narcosis [4]; ip): 121 ± 18 % of controls and 149 ± 28 % of controls and 164 ± 32 % of controls and 232 ± 29 % of controls | effect of post-treatment on ethanol-induced narcosis (ethanol-induced narcosis [4]; ip): significantly prolonged the narcotic effect of ethanol; also recorded: adversely potentiated the narcotic effect | effect on incidence of spike wave discharges (spike wave discharges): significantly lowered the incidence of spike wave discharges | 1-4 Hz amplitude (1-4 Hz slow wave EEG; 1.9 μmol/kg i.p.): 13.2 ± 2.0 μVolts | effect on low frequency (1-4 Hz) EEG slow-wave patterns (1-4 Hz slow wave EEG; i.p.): significant (p<0.05, 2-way ANOVA, Fisher post hoc analysis) attenuation | effect on time spent in the open arms ([5]; 48 h after withdrawal of chronic (-)-nicotine): significant reduction in the time spent in the open arms | TIME OPEN ARMS ([5]; 14 days chronic 10 mg/kg/day then withdrawal, saline challenge, *p < 0.05 against chronic saline, mean ± SEM): 35.1 ± 6.0 s | effect on motor incoordination due to ethanol (effects of ethanol): significantly attenuate the motor incoordination due to the effects of ethanol

COC(=O)C1=CCCN(C)C1 [Arecoline, reference compound]
Ki ([6]; Table 1, read-out: Nicotinic Receptor Ki): 0.059 µM | Ki ([6]; Table 2, read-out: Nicotinic Ki): 0.059 µM | Ki (muscarinic receptors): 5 µM | pharmacokinetics [7]: unfavorable pharmacokinetics

CN1C(=O)CN=C(c2ccccc2)c2cc(Cl)ccc21 [Diazepam, diazepam]
effect on incidence of spike wave discharges (spike wave discharges): significantly lowered these discharges | effect on ethanol sleep time (known) (ethanol-induced narcosis [8]): potentiate the effect of ethanol by increasing the sleep time

CNC1(C)C2CCC(C2)C1(C)C (stereo not shown) [Mecamylamine, mecamylamine]
inhibition of the response to Example 2 ([1]; 10 μM antagonist, Example 2 300 μM, N=3): 81±3% | Total spike wave duration (spike wave discharges; Table 10): 45.7 ± 15.0 s | Total spike wave duration (spike wave discharges; Table 11): 46.8 ± 6.4 s | effect on incidence of spike wave discharges (spike wave discharges): did not affect the incidence of spike/wave discharges | blockade of agonist-induced lowering of spike wave discharges (spike wave discharges; mecamylamine with (-)-nicotine or Example 2): blocked the effects of both (-)-nicotine and the compound of Example 2 | effect on resting cortical perfusion [9]: reduces resting cortical perfusion in the parietotemporal cortex of humans

CCCC(C)C1(CC)C(=O)NC(=O)NC1=O (stereo not shown) [pentobarbital]
effect on ethanol sleep time (known) (ethanol-induced narcosis [8]): potentiate the effect of ethanol by increasing the sleep time

Source: US5409946A, “Isoxazole, isothiazole and pyrazole compounds that enhance cognitive function” (Abbott Laboratories, priority 1993, dated 1995)
